Tests used:
[1] = test system: rat eyes; assay: Tolerability of intravitreally injected DMSO in rat eyes; type: in vivo; conditions: intravitreal, 3 μl, 60%, 1/10 and 1/100 dilution, monitored two weeks
Protocol: In order to test the tolerability of DMSO in eye, DMSO (USP, Ph. Eur.) was injected to the rat eyes intravitreally using 34 G needle The injected volume was 3 μl and three concentrations were injected; 60%, 1/10 dilution, 1/100 dilution. Used Ph. Eur. grade DMSO was 0.2 μm Filter sterilized in Class 5 isolator before the injection.
The rats were monitored for two weeks using the following endpoints: • fundus imaging, including blood vessels • cloudiness and other symptoms in the anterior part of the eye • optic nerve head • state of the vasculature in the posterior eye segment (FAG) • ERG • intraocular pressure • retinal thickness with OCT • histology (in the end)

[2] = Solubility of regorafenib in water and PBS; type: physicochemical
Protocol: Solubility of regorafenib in water and PBS is negligible. Thus, Tween80 was added in PBS to increase solubility in the dissolution media. Regorafenib in vitro release studies from PGLA/DMSO ISFI were carried out in sink conditions, 2-5 ml PBS pH 7.2 (+Tween80 0.05%) in plastic and glass vessels at 35.5° C. (estimated at 10 mm depth in eye) and 60 rpm, orbit 61 mm in dark.

[3] = Chemical stability of latanoprost in HBSS-buffer; type: physicochemical; conditions: HBSS-buffer pH 7.4, +37° C., 48 h
Protocol: Chemical stability of latanoprost was studied simultaneously in HBSS-buffer, pH 7.4, using the same protocol but replacing the vitreous with the buffer.
(§1) Hydrolysis of latanoprost was evaluated in buffer and in vitreous with pH adjusted to 7.4.

[4] = Drug release from implant in porcine vitreous vs. PBS; conditions: 35.5° C., 35% PLGA9010/60% DMSO/4% b-HPCD, 180 μg latanoprost
Protocol: These tests were carried out to ensure that the latanoprost released from the implant would go through hydrolysis to latanoprost acid, which is the active form of the molecule. Purpose of this study was also study the conversion rate of latanoprost to latanoprost acid. In addition, the release of latanoprost from ReBio test formulations was evaluated in vitreous vs. in PBS.
Next the drug release from implant was also tested in porcine vitreous vs. PBS(=phosphate buffered saline).
Formulation composition in this example was 35% PLGA9010/60% DMSO/4% b-HPCD—180 μg Latanoprost.

[5] = Hydrolysis of latanoprost to latanoprost acid in porcine vitreous; type: in vitro ADME
Protocol: Porcine vitreous was mixed with Hanks' balanced salt solution containing 50 mM Hepes (HBSS-buffer, pH 7.4) at and vitreous mix (200 μl) was pipetted to 96-well plates. The plates were incubated at +37° C. and 5% CO2 with mild shaking for one hour to equilibrate the pH of vitreous into neutral range (pH 7.3-7.5). After incubation, 50 μl of 50 μg/mL latanoprost was added to plates and mixed. The final vitreous/buffer ratio was 1:1 and latanoprost concentration 10 μg/mL Latanoprost was incubated in vitreous at +37° C. and 5% CO2 with mild shaking and samples were collected at time points (0, 1, 2, 4, 6, 24, 29, 48 hours). At each time point the 150 μl of the sample was mixed by vortexing with the 150 μl acetonitrile. The samples were stored at −20° C. until HPLC analysis.
as §1
First hydrolysis of latanoprost was evaluated in buffer and in vitreous with pH adjusted to 7.4 and non pH adjusted.

Structure (SMILES): C[S+](C)[O-] [DMSO, dimethylsulfoxide]
- adverse effects in eye [1]: No adverse effect

Structure (SMILES): CNC(=O)c1cc(Oc2ccc(NC(=O)Nc3ccc(Cl)c(C(F)(F)F)c3)c(F)c2)ccn1 [regorafenib, Regorafenib]
- solubility in water and PBS [2]: negligible

Structure (SMILES): CC(C)OC(=O)CCC/C=C\C[C@@H]1[C@@H](CC[C@@H](O)CCc2ccccc2)[C@H](O)C[C@@H]1O [latanoprost, Latanoprost]
- latanoprost acid formation in mere buffer [3]: No latanoprost acid was formed
- conversion of released latanoprost to acid form in PBS [4]: did not change to its acid form
- amount of latanoprost acid in vitreous over time ([5]; porcine vitreous, 48 h experiment): steadily increased
- rate constant of latanoprost acid formation in vitreous (zero-order kinetics) ([5]; porcine vitreous/HBSS buffer 1:1, pH adjusted to 7.4, +37° C., latanoprost 10 μg/mL, 48 h): 0.111 µg/h
